Measured values published in PubChem BioAssay (NCI).
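Grown in 96-well plates, cells were treated for 48 hours with each compound at five concentrations. Insufficient inhibition: endpoint recorded as highest concentration tested. GI50: concentration for 50% inhibition of growth. TGI: concentration producing complete growth inhibition.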

Key:
Assay in all cases: NCI-60 cell line screen, 48 h
[1] = system: DMS 114 small cell lung
[2] = system: DMS 273 small cell lung
[3] = system: HOP-18 NSCLC
[4] = system: KM20L2 colon
[5] = system: M19-MEL melanoma
[6] = system: SNB-78 CNS
[7] = system: XF 498 CNS
[8] = system: MDA-N
[9] = system: RXF-631 renal

SMILES | TGI [1] [µM] | TGI [2] [µM] | TGI [3] [µM] | TGI [4] [µM] | TGI [5] [µM] | TGI [6] [µM] | TGI [7] [µM] | TGI [8] | TGI [9] [µM] | also measured
CC12CCC(=O)N1c1ccc([N+](=O)[O-])cc1N2 (centres undefined) | > 100 | > 100 | > 100 | > 100 | > 100 | > 100 |  |  |  | 
Cc1ccccc1NC(=O)C(=O)C(C#N)c1ccccc1C (centres undefined) | > 100 | > 100 | > 100 | > 100 |  | > 100 | > 100 |  |  | 
OC(C#Cc1ccccc1)(c1ccccc1)c1ccccc1 |  |  |  |  |  |  |  | 61.7 µM |  | 
O=S(=O)(c1cccc(N=C=S)c1)c1cccc(N=C=S)c1 | 29.6 | 40.6 |  | > 100 |  | 63.5 |  |  |  | 
Cc1ccc(S(=O)(=O)N/N=C(/CC(=O)c2c(C)n([O-])c3ccccc3[n+]2=O)C(=O)Nc2ccccc2C)cc1 | > 100 | > 100 | > 100 | > 100 | > 100 | > 100 |  |  |  | 
Cc1cc[n+]2c(c1)-c1cc(C)cc[n+]1CC2 |  |  |  |  |  |  |  | > 100 µM |  | 
N#CC(C#N)c1ccc(C(=O)N2CCC[C@H]2CO)cc1 | > 100 | > 100 | > 100 | > 100 | > 100 |  |  |  | > 100 | 
CC(=O)OCCOCNC(=S)N/N=C/c1cc(Br)cs1 | > 100 | > 100 | > 100 | > 100 | > 100 | > 100 | > 100 |  | > 100 | 
COCOCC/C=C/C=O | > 100 |  | > 100 | > 100 |  | > 100 | > 100 |  |  | 
N#CC(c1ccccn1)c1nc2ccccc2[nH]1 (centres undefined) | > 100 |  |  |  | > 100 | > 100 | > 100 |  |  | 
CC1(C)CC(=O)C2=C(C1)OC(N)=C(c1nc(-c3ccccc3)cs1)C2c1ccc(Br)cc1 (centres undefined) |  |  |  |  |  |  |  | > 150 µg/mL |  | GI50 [8]: 74.3 µg/mL
COC1C(N)C(OC2C(Oc3cccc4c(O)c5c(=O)oc6ccc(C)c7c(=O)oc(c34)c5c67)OC(C)C(O)C2(C)O)OC(C)C1O (centres undefined) | 0.229 | 0.399 | 3.08 | 1.21 | 0.458 | 0.302 | 0.208 | 0.541 µM | 1.45 | 
Cc1cc(N=Nc2ccccc2C)ccc1N |  |  |  |  |  |  |  | 39.6 µM |  | 
OCCNC1c2cc(Cl)ccc2-c2c(Cl)cc(Cl)cc21 (centres undefined) |  |  |  |  |  |  |  | > 100 µM |  | 
O=C(c1nc2ccccc2[nH]c1=O)C(O)c1ccccc1 (centres undefined) | > 100 | > 100 |  | > 100 | > 100 | > 100 |  |  |  | 
O=C(O)CCC(=O)c1ccc2sc3ccccc3c2c1 |  |  |  |  |  |  |  | > 100 µM |  | 
NC(=O)C(=O)C1CCC2=C(Sc3ccccc3N2)C1=O (centres undefined) | > 100 |  |  | > 100 | > 100 | > 100 |  |  | > 100 | 
O=C(O)c1cccc(C(=O)O)c1S(=O)Cc1ccccc1 (centres undefined) |  |  |  |  |  |  |  | > 100 µM |  | 
O=C(O)Cc1cccnc1 |  |  |  |  |  |  |  | > 100 µM |  | 

SMILES | TGI [1] [µM] | TGI [2] [µM] | TGI [3] [µM] | TGI [4] [µM] | TGI [5] [µM] | TGI [6] [µM] | TGI [7] [µM] | TGI [8] | TGI [9] [µM] | also measured
C[N+](C)(C)CC1CCCC1=O (centres undefined) | 8.31 | 19.9 | 3.3 | 7.79 | 5.52 | 9.86 | 3.87 | 3.21 µM | 32.1 | 
CCOC(=O)/C(C#N)=C(O)/C(=C\c1ccc(Br)cc1)NC(=O)c1ccccc1 | > 100 | > 100 | > 100 | > 100 | > 100 | > 100 |  |  | > 100 | 
CCN(CC)c1ccc2c(c1)Oc1ccc(N(CC)CC)cc1C21Oc2ccccc2-c2c1c1ccccc1n2CC (centres undefined) | 3.61 | > 100 | > 100 | > 100 |  | > 100 | 4.08 |  | > 100 | 
Cc1ccc(NC(=O)CC2C(=O)Nc3ccccc3S2(=O)=O)c(C)c1 (centres undefined) | 39.2 | 25.8 |  | 26.9 |  | 56 | 34.8 |  |  | 
Cc1nc(C(=O)O)c2ccccc2n1 | > 100 | > 100 |  | > 100 |  | > 100 |  |  |  | 
CC(C)(Br)C(=O)C(Br)Br | 18.1 | 26.9 |  | 32.2 | 16.1 | 13.9 | 23.8 | 9.54 µM | 27.1 | 
NC(=O)NNC(=O)NC12CC3CC(CC(C3)C1)C2 | > 100 | > 100 | > 100 | > 100 | > 100 | > 100 | > 100 |  |  | 
Cc1ccc(C)c(N2C(=O)C(=O)C(c3nc4ccccc4s3)/C(=N/NC(=O)NN)C2=O)c1 (centres undefined) | > 100 | > 100 | > 100 | > 100 | > 100 | > 100 | > 100 |  | > 100 | 
O=C1Nc2ccccc2N=CC1NC(=O)C(c1ccccc1)c1ccccc1 (centres undefined) | > 100 | > 100 | > 100 | > 100 | > 100 | > 100 |  |  | > 100 | 
C=C1CCC2[C@@H](CCC3[C@]2(C)CCC[C@]3(C)C(=O)OC)C1CC=O (some centres undefined) | 34.7 | 40.7 | 29 | 35.7 | 33.8 | 34.1 | 28.6 |  | 37.2 | GI50 [9]: 20.9 µM
O=C(CC1SC(=Nc2ccccc2Cl)NC1=O)Nc1ccc(Cl)cc1Cl (centres undefined) | > 100 |  | > 100 | > 100 | > 100 | > 100 | > 100 |  | > 100 | 
O=C(O)/C=C/c1nc2ccccc2c(=O)o1 | > 100 | > 100 | > 100 | > 100 | > 100 | > 100 |  |  |  | 
COC(=O)[C@@]1(C(C)CC(=O)O)CCCCC1=O (some centres undefined) | > 100 | 39.7 | > 100 | > 100 | > 100 | > 100 | > 100 |  |  | 
CCC1(O)C(=O)OCc2c1cc1n(c2=O)Cc2cc3c(NC(=O)CN)cccc3nc2-1 (centres undefined) |  | 1.83 | > 24.3 |  | 14.1 | > 100 | 25.4 | > 55.8 µM |  | GI50 [2]: 0.0963 µM; GI50 [3]: 1.02 µM; GI50 [4]: 1.77 µM; GI50 [5]: 1.38 µM; GI50 [8]: 4.94 µM; GI50 [6]: 8.13 µM; GI50 [7]: 2.24 µM
O=S(=O)(/C=C/C(=C/c1ccccc1)S(=O)(=O)c1ccccc1)c1ccccc1 | 3.32 | 2.9 |  |  |  |  | 3.09 |  | 2.31 | 
COc1ccc(CCC2c3cc(OC)c(OC)cc3CCN2C)cc1OC (centres undefined) | > 100 |  | > 100 | > 100 | > 100 | > 100 |  |  |  | 
C=CNC(=O)NC(=O)CSc1nnc(-c2ccccc2NC(=O)C(F)(F)F)c(=O)[nH]1 | 43.1 | > 100 |  |  | > 100 | > 100 | > 100 |  |  | 
CC1(c2ccccc2Cl)C(C#N)C(=O)NC(=O)C1C#N (centres undefined) | > 100 | > 100 |  | > 100 | > 100 | > 100 |  |  |  | 
Nc1c([N+](=O)[O-])nc(Cl)c2nncn12 | > 57.4 | 31.3 | > 100 | > 100 | > 100 | > 100 | > 100 |  | > 100 | 
